This note sets out measurements from patent US10758534B2 (Vertex Pharmaceuticals Incorporated, priority 2014, dated 2020).

One may read the EC30 as the concentration needed for an effect of 30%.

Where only a bound is given, the exact number is not on record here.

The first experiment deals with T1, F508del (Homo sapiens, UniProt P13569, DEL508-508).
T1 construct: expressed in transfected cells
T1 sequence (P13569 with tags, fused parts or gaps DEL508-508): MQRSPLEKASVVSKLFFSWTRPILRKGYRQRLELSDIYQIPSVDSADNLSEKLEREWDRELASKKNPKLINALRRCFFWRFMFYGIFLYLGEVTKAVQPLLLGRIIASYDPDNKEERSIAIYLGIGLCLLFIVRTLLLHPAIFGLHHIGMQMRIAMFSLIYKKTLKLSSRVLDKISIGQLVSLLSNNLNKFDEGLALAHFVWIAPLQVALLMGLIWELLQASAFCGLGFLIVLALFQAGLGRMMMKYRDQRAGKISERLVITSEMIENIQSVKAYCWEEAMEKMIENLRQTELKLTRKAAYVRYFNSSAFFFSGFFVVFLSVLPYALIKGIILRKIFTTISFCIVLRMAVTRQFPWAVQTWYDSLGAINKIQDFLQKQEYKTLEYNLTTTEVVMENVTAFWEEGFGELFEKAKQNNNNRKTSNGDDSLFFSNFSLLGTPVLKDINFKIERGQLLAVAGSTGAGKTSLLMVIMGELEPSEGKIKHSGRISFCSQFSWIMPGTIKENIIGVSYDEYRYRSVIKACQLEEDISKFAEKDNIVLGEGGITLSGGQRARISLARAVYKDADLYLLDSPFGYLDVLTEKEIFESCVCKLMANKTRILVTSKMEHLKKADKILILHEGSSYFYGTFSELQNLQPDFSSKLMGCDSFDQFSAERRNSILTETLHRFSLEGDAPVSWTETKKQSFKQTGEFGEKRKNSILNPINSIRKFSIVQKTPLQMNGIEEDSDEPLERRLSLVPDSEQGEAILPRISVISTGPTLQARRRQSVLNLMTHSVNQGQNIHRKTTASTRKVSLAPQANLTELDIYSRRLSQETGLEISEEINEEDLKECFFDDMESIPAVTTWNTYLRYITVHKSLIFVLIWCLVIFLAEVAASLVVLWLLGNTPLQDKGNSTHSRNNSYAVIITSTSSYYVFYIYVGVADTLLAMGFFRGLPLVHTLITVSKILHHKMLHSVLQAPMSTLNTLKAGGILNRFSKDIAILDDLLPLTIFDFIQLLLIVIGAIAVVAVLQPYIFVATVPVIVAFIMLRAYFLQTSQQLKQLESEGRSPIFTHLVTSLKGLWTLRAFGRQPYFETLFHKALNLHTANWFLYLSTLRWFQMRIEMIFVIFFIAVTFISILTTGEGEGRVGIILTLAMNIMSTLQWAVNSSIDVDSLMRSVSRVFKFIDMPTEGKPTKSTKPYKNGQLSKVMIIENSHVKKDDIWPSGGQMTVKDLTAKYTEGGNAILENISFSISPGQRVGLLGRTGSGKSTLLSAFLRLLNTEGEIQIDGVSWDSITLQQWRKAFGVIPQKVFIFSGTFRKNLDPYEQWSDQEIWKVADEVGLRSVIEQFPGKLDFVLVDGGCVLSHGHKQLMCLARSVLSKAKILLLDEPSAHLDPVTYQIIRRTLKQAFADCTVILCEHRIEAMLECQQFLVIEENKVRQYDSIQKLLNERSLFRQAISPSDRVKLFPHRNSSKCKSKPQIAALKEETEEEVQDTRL
Description: Protocol 2: FRET membrane potential optical assay (VIPR), identification of correction compounds. The format is cell-based. As to conditions: F508del CFTR modulator activity; compounds of Table 1; read-out: EC30. Put shortly: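 Mouse NIH3T3 cells, stable F508del; cpd 16 hrs, 37° C., serum-free; pos ctrl 27° C. 16 hrs. Rinse in Krebs Ringers, dye load, then add 10 μM forskolin + 20 μM genistein with Cl^−-free (gluconate) medium; depolarization by FRET voltage dyes.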
Regarding `COC(=O)C1CCN(c2cccc(S(=O)(=O)NC(=O)c3cccnc3N3CC(C)CC3(C)C)n2)CC1` (stereo not shown) [Compound 2442, methyl 1-[6-[[2-(2,2,4-trimethylpyrrolidin-1-yl)pyridine-3-carbonyl]sulfamoyl]-2-pyridyl]piperidine-4-carboxylate], the concentration for an effect of 30% (EC30) fell in the range of 3000 to 10000 nM.

Turning to `Cc1cccc(C)c1Oc1nc(-c2cc(F)cc(OCC(C)C)c2)ccc1C(=O)NS(=O)(=O)c1ccc(O)c(N)n1` [Compound 2331, N-[(6-amino-5-hydroxy-2-pyridyl)sulfonyl]-2-(2,6-dimethylphenoxy)-6-(3-fluoro-5-isobutoxy-phenyl)pyridine-3-carboxamide], the 30% effect concentration (EC30) is < 3000 nM.

Turning to `CC1CN(c2ncccc2C(=O)NS(=O)(=O)c2cccc(N3CCCCC3C)n2)C(C)(C)C1` (stereo not shown) [Compound 2747], the 30% effect concentration (EC30) was < 3000 nM.

Consider `CCOC(=O)C1CCN(c2cccc(S(=O)(=O)NC(=O)c3cccnc3N3CC(C)CC3(C)C)n2)CC1` (stereo not shown) [Compound 2488, ethyl 1-[6-[[2-(2,2,4-trimethylpyrrolidin-1-yl)pyridine-3-carbonyl]sulfamoyl]-2-pyridyl]piperidine-4-carboxylate], for which the EC30 is < 3000 nM.

As for `CC1CN(c2ncccc2C(=O)NS(=O)(=O)c2cccc(Nc3ccc(N4CCCCC4)cc3)n2)C(C)(C)C1` (stereo not shown) [Compound 2087, N—[[6-[4-(1-piperidyl)anilino]-2-pyridyl]sulfonyl]-2-(2,2,4-trimethylpyrrolidin-1-yl)pyridine-3-carboxamide], the EC30 is < 3000 nM.

For the compound `C[C@@H]1CN(c2nc(-c3ccccc3O)ccc2C(=O)NS(=O)(=O)c2ccc[nH]c2=O)C(C)(C)C1` [Compound 2480, 6-(2-hydroxyphenyl)-N-[(2-oxo-1H-pyridin-3-yl)sulfonyl]-2-[(4S)-2,2,4-trimethylpyrrolidin-1-yl]pyridine-3-carboxamide], the EC30 was in the range of 3000 to 10000 nM.

Still in this experiment, the particulars now being: Table 3; compounds of Table 1 as modulators of CFTR activity; protocol not stated.
As for `Cc1cc(C)c(Oc2nc(CCc3ccccc3)ccc2C(=O)NS(=O)(=O)c2cccc(N)n2)c(C)c1` [Compound 268, N-[(6-amino-2-pyridyl)sulfonyl]-6-phenethyl-2-(2,4,6-trimethylphenoxy)pyridine-3-carboxamide], the concentration for an effect of 30% (EC30) entry is reported as “+++ (“+++” means <3 uM)”.

Regarding `C[C@@H]1CC[C@H](C)N1c1nc(C2CCCCC2)ccc1C(=O)NS(=O)(=O)c1cccc(N)n1` [Compound 704, N-[(6-amino-2-pyridyl)sulfonyl]-6-cyclohexyl-2-[(2S,5R)-2,5-dimethylpyrrolidin-1-yl]pyridine-3-carboxamide], the 30% effect concentration (EC30) result is “++ (“++” means between 3 uM and 10 uM)”.

Regarding `CC(C)Oc1ccc(-c2ccc(C(=O)NS(=O)(=O)c3cccc(N)n3)c(N3C(C)CC4CCCCC43)n2)cn1` (stereo not shown) [Compound 675, N-[(6-amino-2-pyridyl)sulfonyl]-6-(6-isopropoxy-3-pyridyl)-2-(2-methyl-2,3,3a,4,5,6,7,7a-octahydroindol-1-yl)pyridine-3-carboxamide], the EC30 entry is listed as “+++ (“+++” means <3 uM)”.

As to `Cc1cc(C)c(CN2CCCc3ccccc3C2C(=O)NS(=O)(=O)c2ccccc2)c(C)c1` (stereo not shown) [Compound 674, N-(benzenesulfonyl)-2-[(2,4,6-trimethylphenyl)methyl]-1,3,4,5-tetrahydro-2-benzazepine-1-carboxamide], the concentration for an effect of 30% (EC30) entry is on record as “+++ (“+++” means <3 uM)”.

With `Cc1cc(C)c(-c2nc(C(C)(C)C)ccc2C(=O)NS(=O)(=O)c2cccc(N)c2)c(C)c1` [Compound 26, N-(3-aminophenyl)sulfonyl-6-tert-butyl-2-(2,4,6-trimethylphenyl)pyridine-3-carboxamide], the concentration for an effect of 30% (EC30) result was “++ (“++” means between 3 uM and 10 uM)”.

On to `CC(C)COc1cc(F)cc(-c2ccc(C(=O)NS(=O)(=O)c3ccn[nH]3)c(N3CCCCCC3)n2)c1` [Compound 734, 2-(azepan-1-yl)-6-(3-fluoro-5-isobutoxy-phenyl)-N-(1H-pyrazol-5-ylsulfonyl)pyridine-3-carboxamide], for which the concentration for an effect of 30% (EC30) result is recorded as “+++ (“+++” means <3 uM)”.

In the case of `Cc1cc(C)c(Oc2nc(-c3ccc(C#N)cc3)ccc2C(=O)NS(=O)(=O)c2cccc(N)n2)c(C)c1` [Compound 216, N-[(6-amino-2-pyridyl)sulfonyl]-6-(4-cyanophenyl)-2-(2,4,6-trimethylphenoxy)pyridine-3-carboxamide], the concentration for an effect of 30% (EC30) entry is reported as “+++ (“+++” means <3 uM)”.

On to `CC(C)Oc1ccc(-c2ccc(C(=O)NS(=O)(=O)c3cccc(N)n3)c(N3CCC4(CC3)CC4)n2)cn1` [Compound 578, N-[(6-amino-2-pyridyl)sulfonyl]-2-(6-azaspiro[2.5]octan-6-yl)-6-(6-isopropoxy-3-pyridyl)pyridine-3-carboxamide], for which the EC30 entry is listed as “+++ (“+++” means <3 uM)”.

Regarding `COc1ccc2c(c1)cc(C(=O)NS(=O)(=O)c1cccc(N)c1)n2Cc1c(C)cc(C)cc1C` [Compound 336, N-(3-aminophenyl)sulfonyl-5-methoxy-1-[(2,4,6-trimethylphenyl)methyl]indole-2-carboxamide], the EC30 entry is listed as “+++ (“+++” means <3 uM)”.

Consider `Cc1ccc(-c2ccc(C(=O)NS(=O)(=O)c3cc[nH]n3)c(Oc3ccc(C)cc3C)n2)cc1` [Compound 610, 2-(2,4-dimethylphenoxy)-6-(p-tolyl)-N-(1H-pyrazol-3-ylsulfonyl)pyridine-3-carboxamide], for which the EC30 result is given as “+++ (“+++” means <3 uM)”.

As for `Cc1cc(C)c(Oc2nc(-c3ccc(F)c4c3OCO4)ccc2C(=O)NS(=O)(=O)c2cccc(N)n2)c(C)c1` [Compound 345, N-[(6-amino-2-pyridyl)sulfonyl]-6-(7-fluoro-1,3-benzodioxol-4-yl)-2-(2,4,6-trimethylphenoxy)pyridine-3-carboxamide], the concentration for an effect of 30% (EC30) result is given as “+++ (“+++” means <3 uM)”.

`CC1CCN(c2nc(-c3ccc(OC(C)C)nc3)ccc2C(=O)NS(=O)(=O)c2ccn[nH]2)CC1` [Compound 534, 6-(6-isopropoxy-3-pyridyl)-2-(4-methyl-1-piperidyl)-N-(1H-pyrazol-5-ylsulfonyl)pyridine-3-carboxamide]: the EC30 entry was “++ (“++” means between 3 uM and 10 uM)”.

Consider `CC(C)COc1cc(F)cc(-c2ccc(C(=O)NS(=O)(=O)c3cccc(N)n3)c(N3CCCC(C)C3)n2)c1` (stereo not shown) [Compound 735, N-[(6-amino-2-pyridyl)sulfonyl]-6-(3-fluoro-5-isobutoxy-phenyl)-2-(3-methyl-1-piperidyl)pyridine-3-carboxamide], for which the EC30 entry was “+++ (“+++” means <3 uM)”.

For `CNc1cccc(S(=O)(=O)NC(=O)c2ccc(C(C)(C)C)nc2Oc2c(C)cc(C)cc2C)n1` [Compound 262, 6-tert-butyl-N-[[6-(methylamino)-2-pyridyl]sulfonyl]-2-(2,4,6-trimethylphenoxy)pyridine-3-carboxamide], the EC30 result is on record as “+++ (“+++” means <3 uM)”.

Regarding `CCC1(C)CCCN(c2nc(-c3cc(F)cc(OCC(C)C)c3)ccc2C(=O)NS(=O)(=O)c2cccc(N)n2)C1` (stereo not shown) [Compound 530, N-[(6-amino-2-pyridyl)sulfonyl]-2-(3-ethyl-3-methyl-1-piperidyl)-6-(3-fluoro-5-isobutoxy-phenyl)pyridine-3-carboxamide], the EC30 result is recorded as “+++ (“+++” means <3 uM)”.

Take `Cc1cccc(C)c1Cn1nc(-c2cccc(F)c2)cc1C(=O)NS(=O)(=O)c1ccccc1` [Compound 166, N-(benzenesulfonyl)-2-[(2,6-dimethylphenyl)methyl]-5-(3-fluorophenyl)pyrazole-3-carboxamide]: the EC30 entry was “+++ (“+++” means <3 uM)”.
